Experimental data as given in US11753626B2, “Tumor cell suspension cultures and related methods” (Beijing Percans Oncology Co., Ltd., priority 2016, dated 2023).

tested on: tumor cell clusters from colorectal cancer patients; experiment: ex vivo drug sensitivity assay of tumor cell clusters in suspension culture (Edu incorporation); format: cell-based, human; conditions: FIG. 4; test conditions of FIG. 3B; short-term suspension culture in defined growth medium
Experimental: Briefly, the non-tumor tissues and the necrotic fractions were carefully removed from the tumor specimen. The tumor tissues were cut into small pieces less than 1 mm in diameter using scissors. Minced tumor fractions were transferred into a sterile 100-ml triangle glass flask loaded with a magnet stir bar. A 10-15 ml digestion media containing 0.25 U/ml Liberase DH was added into the minced tumor tissues to start enzyme digestion. The enzyme mixture was incubated at 37° C. for 1-2 hours with moderate stirring. The partially digested tumor cell clusters were filtered through a 100-μm cell retainer. The filtrates were re-filtered through a 40-μm cell restrainer. The tumor cell clusters retained on the 40-μm cell restrainer was collected, wash twice with HBSS, then re-suspended in a defined growth media supplemented with cell growth factors and small molecule inhibitors.
For ex vivo drug sensitivity assays, the tumor cell clusters were recovered in a defined growth medium overnight. The defined growth medium was StemPro hESC SFM supplement with Nicotinamide, Wnt3A, Noggin, R-spondin-1, and Y27632. The tumor cell clusters were then exposed to drug (e.g., Docetaxel at 2 μM (Cmax)) for 24 hours before the drug was washed away. Following exposure with drug, the tumor cell clusters were labeled with 5-ethynyl-2′-deoxyuridine (Edu) to assess the tumor cell proliferation rates. The labeling started at 48 hours after the drug exposure and continued for 96 hours. In the control group, tumor cell clusters received no drug exposure with media change, but were similarly labeled with Edu. The labeled tumor cell clusters were dissociated into single cells and fixed. The fixed cells were stained with Hoechst 33342 in PBS containing 0.2% Triton X-100 overnight at 4° C. The incorporated Edu was detected by Click-iT reaction where fixed cells were incubated with a reaction mixture containing 1× Click-iT Edu reaction buffer, CuSO4, and azide-conjugated Alexa Fluor dye in the dark. The stained cells were washed with PBS before being distributed into a black wall plate for image acquisition and analysis.
For image acquisition and analysis, the stained tumor cells were imaged by a high-content screening (HCS) platform (Thermo Scientific Cellomics ArrayScan XTi HCS reader). The 10× objective was used to collect images. Twenty-five fields were imaged for each well, and more than 3000 cells were captured for the analysis. From the images two fluorescent signals were obtained from the HCS reader. Blue fluorescent signals recorded nucleus signals stained with Hoechst 33342, and green fluorescent signal detected the Edu incorporated in newly synthesized DNA. The Edu positive subpopulation cells percentage was calculated as percent of the total cell counts. […]

Compound	growth of tumor cell clusters (inhibition by tested drug)
CNC(=O)c1cc(Oc2ccc(NC(=O)Nc3ccc(Cl)c(C(F)(F)F)c3)cc2)ccn1 [sorafenib]	not completely inhibited
C[C@@H](Oc1cc(-c2cnn(C3CCNCC3)c2)cnc1N)c1c(Cl)ccc(F)c1Cl [crizotinib]	not completely inhibited
O=C1[O][Pt]2([NH][C@@H]3CCCC[C@H]3[NH]2)[O]C1=O [oxaliplatin]	not completely inhibited
C#Cc1cccc(Nc2ncnc3cc(OCCOC)c(OCCOC)cc23)c1 [erlotinib]	not completely inhibited
